Target: T1, aromatase (CYP19) (Homo sapiens, UniProt P11511)
T1 sequence (P11511 1-503): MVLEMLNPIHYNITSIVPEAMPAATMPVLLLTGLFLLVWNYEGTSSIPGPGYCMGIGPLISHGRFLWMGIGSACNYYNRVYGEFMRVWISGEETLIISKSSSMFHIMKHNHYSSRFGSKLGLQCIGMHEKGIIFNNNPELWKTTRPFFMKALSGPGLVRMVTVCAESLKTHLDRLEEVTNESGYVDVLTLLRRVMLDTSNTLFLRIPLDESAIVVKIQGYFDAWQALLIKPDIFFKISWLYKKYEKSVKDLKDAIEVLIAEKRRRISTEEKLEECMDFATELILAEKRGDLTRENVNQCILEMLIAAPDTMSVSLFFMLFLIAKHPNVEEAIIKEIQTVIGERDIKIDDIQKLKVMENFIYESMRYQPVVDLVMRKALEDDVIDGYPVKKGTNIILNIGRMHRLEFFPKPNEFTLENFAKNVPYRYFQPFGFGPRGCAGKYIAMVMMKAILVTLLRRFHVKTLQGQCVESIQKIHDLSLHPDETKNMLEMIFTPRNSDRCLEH
Assay type: cell-based

IC50: 9.73 µM
SMILES: C/C=C(\C)c1cc(O)c(C)c2c1Oc1cc(O)cc(C)c1C(=O)O2 [UNG, unguinol]

Source: publication PMC5615129 (Toxicology Reports, 2017)
